# Data as given in PubChem BioAssay (NCI).
#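 Test compounds were applied to cells in 96-well plates for 48 hours at 5 doses. TGI: concentration producing complete growth inhibition.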
# Key:
# Test in all cases: inhibition of tumour cell growth, NCI panel, 48 h
# [1] = test system: SNB-78 CNS
# [2] = test system: HOP-18 NSCLC
# [3] = test system: A549 NSCLC
# [4] = test system: HCT-15 colon
# [5] = test system: XF 498 CNS
# [6] = test system: SN12C renal
# [7] = test system: COLO 205 colon
# [8] = test system: SK-OV-3 ovarian
# [9] = test system: ACHN renal
# [10] = test system: HT29 colon
# [11] = test system: DMS 273 small cell lung
# [12] = test system: OVCAR-8 ovarian
# [13] = test system: MOLT-4 leukemia
# [14] = test system: NCI-H226 lung
# [15] = test system: OVCAR-4 ovarian
# [16] = test system: K-562 leukemia
# [17] = test system: SNB-19 CNS
# [18] = test system: OVCAR-3 ovarian
# [19] = test system: KM12 colon
# [20] = test system: IGROV1 ovarian
# [21] = test system: DLD-1 colon
# [22] = test system: EKVX NSCLC
# [23] = test system: DMS 114 small cell lung
# [24] = test system: UACC-62 melanoma
# [25] = test system: RPMI-8226 leukemia
# [26] = test system: SF-268 CNS
# [27] = test system: SNB-75 CNS
# [28] = test system: LOX IMVI melanoma
# [29] = test system: UO-31 renal
# [30] = test system: MALME-3M melanoma
# [31] = test system: SW-620 colon
# [32] = test system: HCC-2998 colon
# [33] = test system: NCI-H23 lung
# [34] = test system: M19-MEL melanoma
# [35] = test system: 786-0 renal
# [36] = test system: A498 renal
# [37] = test system: U251 CNS
# [38] = test system: NCI-H460 lung
# [39] = test system: LXFL 529 NSCLC
# [40] = test system: SK-MEL-5 melanoma
# [41] = test system: SF-539 CNS
# [42] = test system: SF-295 CNS
# [43] = test system: SK-MEL-28 melanoma
# [44] = test system: OVCAR-5 ovarian
# [45] = test system: CCRF-CEM leukemia
# [46] = test system: SR leukemia
# [47] = test system: RXF-631 renal
# [48] = test system: M14 melanoma
# [49] = test system: RXF 393 renal
# [50] = test system: TK-10 renal
# [51] = test system: KM20L2 colon
# [52] = test system: UACC-257 melanoma
# [53] = test system: HOP-92 NSCLC
# [54] = test system: HCT-116 colon
# [55] = test system: CAKI-1 renal
# [56] = test system: SK-MEL-2 melanoma
# [57] = test system: HL-60(TB) leukemia
smiles,measurement,setting,value
O=C1NC(=O)C2C1c1[nH]c3ccccc3c1C1CCCC12 (configuration not stated),TGI,[1],> 100 µM
same,TGI,[2],83.8 µM
same,TGI,[3],> 100 µM
same,TGI,[4],> 100 µM
same,TGI,[5],6.85 µM
same,TGI,[6],> 100 µM
same,TGI,[7],32.1 µM
same,TGI,[8],45.4 µM
same,TGI,[9],> 100 µM
same,TGI,[10],> 100 µM
same,TGI,[11],12.6 µM
same,TGI,[12],64.5 µM
same,TGI,[13],> 100 µM
same,TGI,[14],51.7 µM
same,TGI,[15],> 100 µM
same,TGI,[16],> 100 µM
same,TGI,[17],> 100 µM
same,TGI,[18],5.64 µM
same,TGI,[19],> 100 µM
same,TGI,[20],> 100 µM
same,TGI,[21],> 100 µM
same,TGI,[22],> 100 µM
same,TGI,[23],29.5 µM
same,TGI,[24],> 100 µM
same,TGI,[25],> 100 µM
same,TGI,[26],39.1 µM
same,TGI,[27],6.29 µM
same,TGI,[28],> 100 µM
same,TGI,[29],> 100 µM
same,TGI,[30],> 100 µM
same,TGI,[31],> 100 µM
same,TGI,[32],> 100 µM
same,TGI,[33],> 100 µM
same,TGI,[34],> 100 µM
same,TGI,[35],> 100 µM
same,TGI,[36],26.6 µM
same,TGI,[37],22.6 µM
same,TGI,[38],> 100 µM
same,TGI,[39],> 100 µM
same,TGI,[40],8.66 µM
same,TGI,[41],11.8 µM
same,TGI,[42],6.56 µM
same,TGI,[43],> 100 µM
same,TGI,[44],> 100 µM
same,TGI,[45],> 100 µM
same,TGI,[46],> 100 µM
same,TGI,[47],> 100 µM
same,TGI,[48],> 100 µM
same,TGI,[49],24.4 µM
same,TGI,[50],> 100 µM
CC(=O)N(C)C=C1C(=O)N(C)C(=O)N(C)C1=O,TGI,[2],> 100 µM
same,TGI,[3],> 100 µM
same,TGI,[4],> 100 µM
same,TGI,[5],> 100 µM
same,TGI,[6],> 100 µM
same,TGI,[9],> 100 µM
same,TGI,[10],> 100 µM
same,TGI,[11],> 100 µM
same,TGI,[12],> 100 µM
same,TGI,[13],> 100 µM
same,TGI,[14],> 100 µM
same,TGI,[15],> 100 µM
same,TGI,[16],> 100 µM
same,TGI,[17],> 100 µM
same,TGI,[18],> 100 µM
same,TGI,[19],> 100 µM
same,TGI,[21],> 100 µM
same,TGI,[22],> 100 µM
same,TGI,[23],> 100 µM
same,TGI,[24],> 100 µM
same,TGI,[51],> 100 µM
same,TGI,[25],> 100 µM
same,TGI,[52],> 100 µM
same,TGI,[27],> 100 µM
same,TGI,[28],> 100 µM
same,TGI,[29],> 100 µM
same,TGI,[30],> 100 µM
same,TGI,[53],> 100 µM
same,TGI,[31],> 100 µM
same,TGI,[32],> 100 µM
same,TGI,[33],> 100 µM
same,TGI,[34],> 100 µM
same,TGI,[35],> 100 µM
same,TGI,[36],> 100 µM
same,TGI,[37],> 100 µM
same,TGI,[38],> 100 µM
same,TGI,[39],> 100 µM
same,TGI,[40],> 100 µM
same,TGI,[41],> 100 µM
same,TGI,[54],> 100 µM
same,TGI,[42],> 100 µM
same,TGI,[43],> 100 µM
same,TGI,[44],> 100 µM
same,TGI,[55],> 100 µM
same,TGI,[45],> 100 µM
same,TGI,[46],> 100 µM
same,TGI,[47],> 100 µM
same,TGI,[48],> 100 µM
same,TGI,[49],> 100 µM
same,TGI,[50],> 100 µM
same,TGI,[56],> 100 µM
same,TGI,[57],> 100 µM
CC(=O)NC1C(O)CC(OCCCSCCN)(C(=O)O)OC1C(O)C(O)CO (configuration not stated),TGI,[1],> 100 µM
same,TGI,[2],> 100 µM
same,TGI,[3],> 100 µM
same,TGI,[4],> 100 µM
same,TGI,[5],> 100 µM
same,TGI,[6],> 100 µM
same,TGI,[7],> 100 µM
same,TGI,[9],> 100 µM
same,TGI,[10],> 100 µM
same,TGI,[11],> 100 µM
same,TGI,[12],> 100 µM
same,TGI,[13],> 100 µM
same,TGI,[14],> 100 µM
same,TGI,[15],> 100 µM
same,TGI,[17],> 100 µM
same,TGI,[19],> 100 µM
same,TGI,[20],> 100 µM
same,TGI,[21],> 100 µM
same,TGI,[22],> 100 µM
same,TGI,[23],> 100 µM
same,TGI,[51],> 100 µM
same,TGI,[25],> 100 µM
same,TGI,[26],> 100 µM
same,TGI,[52],> 100 µM
same,TGI,[27],> 100 µM
same,TGI,[28],> 100 µM
same,TGI,[30],> 100 µM
same,TGI,[53],> 100 µM
same,TGI,[31],> 100 µM
same,TGI,[32],> 100 µM
same,TGI,[33],> 100 µM
same,TGI,[36],> 100 µM
same,TGI,[37],> 100 µM
same,TGI,[38],> 100 µM
same,TGI,[39],> 100 µM
same,TGI,[40],> 100 µM
same,TGI,[41],> 100 µM
same,TGI,[54],> 100 µM
same,TGI,[42],> 100 µM
same,TGI,[43],> 100 µM
same,TGI,[44],> 100 µM
same,TGI,[55],> 100 µM
same,TGI,[45],> 100 µM
same,TGI,[46],> 100 µM
same,TGI,[47],> 100 µM
same,TGI,[48],> 100 µM
same,TGI,[49],> 100 µM
same,TGI,[50],> 100 µM
same,TGI,[56],> 100 µM
same,TGI,[57],> 100 µM
